Measurements: paper PMC3493683 (Journal of medicinal chemistry, 2012)

Biological target: recombinant β-secretase (memapsin 2, BACE 1) (Homo sapiens, UniProt P56817)
Assay: BACE 1 inhibitory activity against recombinant β-secretase
Type: biochemical
Conditions: for BACE 1 inhibitory activity (in words): recombinant β-secretase

Sequence of recombinant β-secretase (memapsin 2, BACE 1) (P56817 46-501): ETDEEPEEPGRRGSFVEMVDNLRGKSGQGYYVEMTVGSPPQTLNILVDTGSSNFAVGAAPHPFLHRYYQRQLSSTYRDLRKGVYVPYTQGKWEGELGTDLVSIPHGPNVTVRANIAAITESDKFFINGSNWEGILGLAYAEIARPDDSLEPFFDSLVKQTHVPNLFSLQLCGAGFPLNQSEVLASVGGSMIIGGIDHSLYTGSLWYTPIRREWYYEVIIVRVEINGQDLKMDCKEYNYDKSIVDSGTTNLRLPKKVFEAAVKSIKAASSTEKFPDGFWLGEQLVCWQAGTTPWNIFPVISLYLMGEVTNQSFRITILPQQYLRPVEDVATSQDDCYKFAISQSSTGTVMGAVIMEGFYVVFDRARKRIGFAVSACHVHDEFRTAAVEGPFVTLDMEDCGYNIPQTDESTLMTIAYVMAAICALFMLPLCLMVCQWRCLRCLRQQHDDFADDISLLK

| BACE 1 inhibitory activity (in words) | Compound | further results |
| --- | --- | --- |
| abolished all BACE 1 inhibitory activity | CC(C)CN(C)C(=O)[C@@H](NC[C@H](Cc1ccccc1)NC(=O)c1cc(C(=O)N[C@H](C)c2ccccc2)cc(N(C)S(C)(=O)=O)c1)[C@H](C)O [Inhibitor 7] |  |
| total loss in potency | CC(C)CNC[C@@H](NC[C@H](Cc1ccccc1)NC(=O)c1cc(C(=O)N[C@H](C)c2ccccc2)cc(N(C)S(C)(=O)=O)c1)[C@H](C)O [Inhibitor 9] |  |
|  | CCC[C@H](O)[C@H](NC[C@H](Cc1ccccc1)NC(=O)c1cc2c3c(c1)c(CC)cn3CCS(=O)(=O)N2C)C(=O)NCC(C)C [Inhibitor 19] | improvement in the potency (BACE 1) (compared with inhibitor 18): around 18 fold |
|  | CCC[C@H](O)[C@H](NC[C@H](Cc1ccccc1)NC(=O)c1cc2c3c(c1)c(CC)cn3CC(C)(C)S(=O)(=O)N2C)C(=O)NCC(C)C [Inhibitor 20] | potency enhancement (BACE 1) (over unsubstituted inhibitor 19): > 10 fold |
